One series deals with rat muricide. Put plainly: rat muricide test. In kind it is in vivo. The conditions noted are these: ip, intraperitoneal administration. An excerpt: In the rat muricide test (based on the method of Horovitz et al., Int. J.
Series [1] deals with abnormal behaviour of beagles. Put plainly: improvement of abnormal behaviour in beagles. It counts as in vivo. Particulars: Canis lupus familiaris, po; read-out: MED for improvement of abnormal behaviour in beagles.
For series [2], the system named is behaviour, neurologic function, autonomic function. Particulars: rat, in vivo, ip.
The test system of series [3] is beagles with normal behaviour. Nature of the series: in vivo. Particulars: dog, po.
A short description of series [4]: in vivo. Particulars: rat, ip.
Series [5] in a line: in vivo. Set-up: species or system beagles. The conditions noted are these: dog, po.

This is an account of results in patent EP0073849A1, “Novel phenyl-1,2,3,4-tetrahydrocarbazoles, their preparation and pharmaceutical compositions containing them” (priority 1981, dated 1983).

Each structure is given as a SMILES string. Some results are limits rather than exact numbers.

With `CN(C)CCC=C1c2ccccc2CCc2ccccc21` [Amitriptyline], the ED50 with rat muricide is 5.2 mg/kg.

On to `CN(C)CCCN1c2ccccc2CCc2ccccc21` [Imipramine], for which the minimal effective dose in series [1] amounted to 10 mg/kg. For the same compound, in series [2], the “dosage levels that cause changes in behaviour, in neurologic function or in autonomic function” value turned out to be 30 mg./kg. Besides, in series [3], the “dose causing decreased motor activity and passivity” value is 30 mg/kg; the “dose causing decreased motor activity and passivity as multiple of the MED” value is given as “three”; the “dose causing tremors and mydriasis” value is 10 mg/kg. Moreover, it took a dose of 6.4 mg/kg to reach the 50% effect level in the series with rat muricide (ED50).

On to `COc1ccc2[nH]c3c(c2c1)CC(c1ccccc1)CC3` (stereo not drawn) [Test compound, 6-Methoxy-3-phenyl-1,2,3,4-tetrahydrocarbazole], for which the minimal effective dose in series [1] turned out to be 10 mg/kg. For the same compound, the “dosage levels that cause changes in behaviour, in neurologic function or in autonomic function” value in series [2] is given as 100-1000 mg./kg. The selectivity ratio in “in vivo [4]” was in the range of 50 to 500. Further, in the series “in vivo [5]”, the no observed adverse effect level (NOAEL) at 6 h is more than 60 mg/kg. In the series with rat muricide, this compound gave a 50% effective dose (ED50) of 1.7 mg/kg.
